Consider two compounds from patent publication US20200407398A1, “Short Proline-Rich Lipopeptide Potentiates Minocycline and Rifampicin Against Multidrug-and Extensively Drug-Resistant Pseudomonas Aeruginosa” (priority 2018, published 2020).

The MIC is the lowest concentration found to suppress growth.

Square brackets hold non-standard residues; d marks the D form. Peptide text beside a SMILES is read from it. * marks the point of attachment. Lauroyl = CCCCCCCCCCCC(=O)* Some results are limits rather than exact numbers.

In test [1] the test system is P. aeruginosa PAO1 (wild-type). Kind of test: microbe, parasite or virus in culture. On the procedure:
We evaluated the activity of SPRLPs in combination with fifteen clinically-used antibiotics against P. aeruginosa. Antibiotics tested included fluoroquinolones (moxifloxacin, ciprofloxacin and levofloxacin), aminoglycosides (gentamicin, tobramycin and amikacin), cephalosporins (ceftazidime and cefotaxime), carbapenems (meropenem and doripenem), aztreonam, rifampicin, minocycline, colistin and fosfomycin. The SPRLPs were screened initially at a fixed concentration of 8 μg/mL (5 μM) in combination with antibiotics against wild-type P. aeruginosa PAO1. We assessed potentiation by at least a four-fold absolute MIC reduction of the antibiotic, after which synergism was further validated by a conventional checkerboard assay. A fractional inhibitory concentration (FIC) index of ≤0.5, 0.5<x≤4 or >4 was interpreted as synergistic, indifferent or antagonistic interaction, respectively (31). FIC index was obtained by adding the FIC values of the antibiotic and the SPRLP adjuvant. FIC of antibiotics was calculated by dividing the MIC of the antibiotic in the presence of the adjuvant by the MIC of the antibiotic alone. Similarly, the FIC of adjuvant was calculated via dividing the MIC of the adjuvant in the presence of the antibiotic by the MIC of the adjuvant alone.
Microbroth dilution susceptibility test following the Clinical and Laboratory Standards Institute (CLSI) guidelines (32) was performed to assess the in vitro antibacterial activity of SPRLPs. Overnight grown bacterial cultures were diluted in saline to achieve a 0.5 McFarland turbidity, followed by 1:50 dilution in Mueller-Hinton broth (MHB) for inoculation to a final concentration of 5×10^5 colony forming units/mL. The assay was done on a 96-well plate to which the agents of interest were 2-fold serially diluted in MHB and incubated with equal volumes of inoculum at 37° C. for 18 hours. MIC was determined as the lowest concentration to inhibit visible bacterial growth in form of turbidity, which was confirmed using EMax Plus microplate reader (Molecular Devices, USA) at a wavelength of 590 nm. The well containing MHB broth with or without bacterial cells was used as positive or negative control, respectively.
The assay was performed on a 96-well plate, to which the agents of interest was 2-fold serially diluted in working MHB. Prior to serial dilution, SPRLP was added to the working MHB media so that a fixed final concentration of 8 μg/mL (5 μM) SPRLP per well was achieved. To ensure that the assay was working, the MIC determination test of the studied antibiotic (without SPRLP) was included on the same plate. Similar MIC results between the assay comparator and an independent MIC determination test (on a different plate) ensured validity of the synergy test. Overnight grown bacterial cultures were diluted in saline to 0.5 McFarland turbidity, followed by 1:50 dilution in MHB (without SPRLP) and inoculation into each well to a final concentration of approximately 5×10^5 colony forming units/mL. Wells containing only MHB (without SPRLP) with or without bacterial cells were used as positive or negative control, respectively. The plate was then incubated at 37° C. for 18 hours and examined for visible turbidity, to which was confirmed using EMax Plus microplate reader (Molecular Devices, USA) at a wavelength of 590 nm. A 4-fold or more MIC reduction of antibiotic in the presence of 8 μg/mL (5 μM) SPRLP denoted a positive synergy result and was further validated by a checkerboard assay.
The assay was done on a 96-well plate as previously described (40, 41). The agent of interest was 2-fold serially diluted along the x-axis, while the adjuvant was 2-fold serially diluted along the y-axis to create a matrix in which each well consist of a combination of both at different concentrations.

The subject of test [2] is methicillin-resistant S. aureus ATCC 33592. It counts as cell-based. The essentials:
(§1)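 Antibacterial potency was recorded as MIC. Each isolate was grown in Mueller-Hinton broth against twofold compound dilutions (inoculum 5×10^5 CFU/mL, 37° C., 18 h), and the lowest concentration lacking turbidity was taken, with optical density at 590 nm as confirmation.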

The test system of test [3] is S. maltophilia CAN-ICU 62584. It counts as cell-based. The essentials: as §1
The subject of test [4] is methicillin-susceptible Staphylococcus epidermidis CANWARD-2008 81388. It is filed as cell-based. As to conditions: methicillin-susceptible CANWARD-2008 81388. The essentials:
as §1

The subject of test [5] is methicillin-resistant S. epidermidis CAN-ICU 61589 (ceftazidime-resistant). It is filed as cell-based. Conditions: methicillin-resistant CAN-ICU 61589 (ceftazidime-resistant). The essentials:
as §1

For test [6], the system named is K. pneumoniae ATCC 13883. It counts as cell-based. The essentials: as §1
The test system of test [7] is P. aeruginosa ATCC 27853. It counts as cell-based. The essentials:
as §1

For test [8], the system named is E. coli CAN-ICU 61714 (gentamicin-resistant). It counts as cell-based. The essentials:
as §1

Test [9] has as its system P. aeruginosa wild-type PAO1. It is filed as cell-based. In outline: as §1
The subject of test [10] is P. aeruginosa CAN-ICU 62308 (gentamicin-resistant). It is filed as cell-based. The essentials: as §1
Test [11] concerns A. baumannii CAN-ICU 63169. It is filed as cell-based. In outline: as §1
Test [12] deals with S. aureus ATCC 29213. It counts as cell-based. The essentials: as §1
The test system of test [13] is P. aeruginosa CANWARD-2011 96846 (gentamicin-, tobramycin-resistant). It is filed as cell-based. The essentials: as §1
Test [14] relates to E. coli CAN-ICU 63074 (amikacin-intermediate resistant). It counts as cell-based. The essentials: as §1
Test [15] deals with E. coli CANWARD-2011 97615 (gentamicin-, tobramycin-, ciprofloxacin-resistant) aac(3′)iia. It is filed as cell-based. In outline:
as §1

Where [16] appears, read: P. aeruginosa PAO1, degree of minocycline potentiation in the presence of 8 μg/mL (5 μM) lipopeptide.
The mark [17] stands for this setting: P. aeruginosa PAO1, degree of rifampicin potentiation in the presence of 8 μg/mL (5 μM) lipopeptide.

`CCCCCCCCCCCC(=O)N1CCC[C@@H]1C(=O)N[C@H](CCCNC(=N)N)C(=O)N1CCC[C@@H]1C(=O)N[C@H](CCCNC(=N)N)C(=O)N1CCC[C@@H]1C(=O)N[C@H](CCCNC(=N)N)C(=O)N1CCC[C@@H]1C(N)=O` [C12-prp] (Lauroyl-[dP][dR][dP][dR][dP][dR][dP]-NH2): the “Absolute MIC MIN” value in test [1] (P. aeruginosa PAO1, MIC of minocycline in the presence of 8 μg/mL (5 μM) lipopeptide) was found to be 2 µg/mL. For the same compound, the “Absolute MIC RMP” value in [1] (P. aeruginosa PAO1, MIC of rifampicin in the presence of 8 μg/mL (5 μM) lipopeptide) stood at 1 µg/mL. In addition, the “MIC (agent alone)” value in [1] (P. aeruginosa PAO1, antibiotic or lipopeptide alone) is greater than 128 µg/mL. For the same compound, the figures for the Potentiation in test [1] (setting [16]) and in test [1] (setting [17]) were 4-fold and 8-fold, respectively.
Consider `CCCCCCCCCCCC(=O)N1CCC[C@H]1C(=O)N[C@@H](CCCNC(=N)N)C(=O)N1CCC[C@H]1C(=O)N[C@@H](CCCNC(=N)N)C(=O)N1CCC[C@H]1C(=O)N[C@@H](CCCNC(=N)N)C(=O)N1CCC[C@H]1C(N)=O` [Compound C12-PRP, CH3(CH2)10CO-PRPRPRP-NH2] (Lauroyl-PRPRPRP-NH2), for which the MIC was greater than 128 µg/mL in [2]; greater than 128 µg/mL in test [3]; 32 µg/mL in test [4]; 128 µg/mL in [5]; greater than 128 µg/mL in test [6]; greater than 128 µg/mL in test [7]. Moreover, the minimal inhibitory concentration (MIC) in [8] is greater than 128 µg/mL; in test [9], 128 µg/mL; in test [10] it was greater than 128 µg/mL; in test [11] it was greater than 128 µg/mL; in test [12], 128 µg/mL; in test [13], greater than 128 µg/mL. Besides, the minimal inhibitory concentration (MIC) in test [14] and in test [15] was greater than 128 µg/mL in each case. Besides, the Potentiation in test [1] (setting [16]) and in test [1] (setting [17]) was 8-fold throughout. Besides, in [1] (PAO1), the “MIC (agent alone)” value was found to be 128 µg/mL.
